Experimental data taken from patent US8680290B2, “Isoxazoline derivatives and their use as herbicides” (Syngenta Limited, priority 2004, dated 2014).

Key:
[1] = system: Monocotyledonous and dicotyledonous test plants; assay: Example B1 herbicidal action, application post-emergence (Table B1a); type: in vivo; conditions: 250 g/ha, evaluated after 3 weeks, scale 0-10
Description: (§1) Monocotyledonous and dicotyledonous test plants were sown in seed trays in standard soil. Immediately after sowing (pre-emergence) or after 8 to 9 days cultivation (post-emergence), the test compounds were applied by spraying in the form of an aqueous solution derived from the formulation of the technical active ingredient in 0.6 ml acetone and 45 ml formulation solution containing 10.6% Emulsogen EL (CAS RN 61791-12-6), 42.2% N-methylpyrrolidone, 42.2% dipropylene glycol monomethyl ether (CAS RN 34590-94-8) and 0.2% X-77 (CAS RN 11097-66-8). The test plants were then grown in a greenhouse under optimum conditions. After a test duration of 3 weeks (post-emergence) or 4 weeks (pre-emergence), the test was evaluated (10=total damage to plant, 0=no damage to plant).

[2] = system: Monocotyledonous and dicotyledonous test plants; assay: Example B1 herbicidal action, application pre-emergence (Table B1b); type: in vivo; conditions: 250 g/ha, evaluated after 4 weeks
Description: as §1

SMILES | herbicidal damage rating, Abutilon [1] | herbicidal damage rating, Amaranthus [1] | herbicidal damage rating, Digitaria [1] | herbicidal damage rating, Panicum [1] | herbicidal damage rating, Setaria [1] | herbicidal damage rating, Sida [1] | herbicidal action (damage rating 0-10), Amaranthus [2] | herbicidal action (damage rating 0-10), Digitaria [2] | herbicidal action (damage rating 0-10), Panicum [2] | herbicidal action (damage rating 0-10), Setaria [2] | herbicidal action (damage rating 0-10), Sida [2]
Cn1nc(C(F)(F)F)c(C(F)(F)S(=O)(=O)C2=NOC(C)(C)C2)c1Cl [2.03] | 7 | 0 | 7 | 7 | 7 | 6 | 10 | 10 | 10 | 10 | 8
CC1(C)CC(S(=O)(=O)C(F)(F)c2ccccc2)=NO1 [1.77] | 5 | 0 | 8 | 5 | 6 | 3 | 10 | 10 | 10 | 10 | 7
Cn1nc(C(F)(F)F)c(C(F)(F)S(=O)(=O)C2=NOC(C)(C)C2)c1OCC(F)(F)F [2.01] | 8 | 5 | 7 | 5 | 5 | 6 | 10 | 10 | 10 | 10 | 9
CC1(C)CC(S(=O)(=O)C(F)(F)c2ccc(F)cc2F)=NO1 [1.118] | 5 | 3 | 8 | 5 | 7 | 3 | 10 | 10 | 10 | 10 | 8
COc1cc(OC)cc(C(F)(Cl)S(=O)(=O)C2=NOC(C)(C)C2)c1 (racemic) [1.96] | 5 | 0 | 8 | 5 | 3 | 2 | 9 | 10 | 10 | 10 | 4
CC1(C)CC(S(=O)(=O)C(F)(F)c2cccnc2Cl)=NO1 [8.04] | 3 |  |  | 3 | 2 | 0 | 10 | 10 | 10 | 10 | 3
CC1(C)CC(S(=O)(=O)C(F)(Cl)c2ccccc2[S+]([O-])C(F)(F)F)=NO1 (stereo not shown) [1.97] | 4 | 5 | 8 | 5 | 7 | 0 | 8 | 10 | 10 | 9 | 0
CCOC(=O)c1ccc(C(F)(Cl)S(=O)(=O)C2=NOC(C)(C)C2)c(F)c1 (stereo not shown) [1.128] | 2 | 5 | 4 | 7 | 3 | 0 |  |  |  |  | 
CC1(C)CC(S(=O)(=O)C(F)(I)c2c(F)cccc2F)=NO1 (racemic) [Compound No. 1.61] | 3 | 0 | 7 | 4 | 6 | 3 | 10 | 10 | 10 | 10 | 7
Cn1nc(C(F)(F)F)c(C(Br)(Br)S(=O)(=O)C2=NOC(C)(C)C2)c1OCC(F)(F)F [2.09] | 7 | 7 | 8 | 8 | 7 | 2 | 10 | 10 | 10 | 10 | 8
CC1(C)CC(S(=O)(=O)C(F)(Cl)c2cc(F)cc(F)c2)=NO1 (stereo not shown) [1.125] | 0 | 0 | 8 | 7 | 5 | 3 | 10 | 10 | 10 | 10 | 7
CC1(C)CC(S(=O)(=O)C(C)(F)c2c(F)cccc2F)=NO1 (stereo not shown) [1.55] | 5 | 3 | 6 | 5 | 7 | 3 | 9 | 10 | 10 | 10 | 5
CC1(C)CC(S(=O)(=O)C(F)(Cl)c2ccccc2)=NO1 (racemic) [1.75] | 5 | 3 | 8 | 5 | 5 | 4 | 10 | 10 | 10 | 10 | 7
Cc1ccc(F)c(C(F)S(=O)(=O)C2=NOC(C)(C)C2)c1F (stereo not shown) [1.105] | 2 | 5 | 8 | 5 | 4 | 7 | 10 | 8 | 10 | 10 | 7
CC1(C)CC(S(=O)(=O)C(F)(Cl)c2ccccc2-c2ccccc2)=NO1 (stereo not shown) [1.149] | 4 | 4 | 5 | 5 | 3 | 5 |  |  |  |  | 
COc1ccccc1C(F)(Cl)S(=O)(=O)C1=NOC(C)(C)C1 (stereo not shown) [1.142] | 0 | 0 | 8 | 7 | 5 | 3 |  |  |  |  | 
COCCC(c1c(F)cccc1F)S(=O)(=O)C1=NOC(C)(C)C1 (stereo not shown) [Compound No. 1.03] | 0 | 9 | 6 | 9 |  | 5 |  |  |  |  | 
COC(=O)c1ccc(C(F)(F)S(=O)(=O)C2=NOC(C)(C)C2)c(F)c1 [1.119] | 3 | 5 | 3 | 7 | 7 | 4 |  |  |  |  | 
CC(=O)O/C(C)=C(/c1c(F)cccc1F)S(=O)(=O)C1=NOC(C)(C)C1 [Compound No. 1.98, acetic acid 2-(2,6-difluoro-phenyl)-2-(5,5-dimethyl-4,5-dihydroisoxazole-3-sulfonyl)-1-methyl-vinyl ester] |  |  |  |  |  |  | 7 | 8 | 9 | 9 | 4
